O=Cc1ccc(C(=O)O)cc1
solubility (mole fraction)
Conditions | 283.15 K | 288.15 K | 293.15 K | 298.15 K | 303.15 K | 308.15 K | 313.15 K | 318.15 K | 323.15 K
in NMP | 0.0654 | 0.0767 | 0.0897 | 0.104 | 0.121 | 0.14 | 0.161 | 0.184 | 0.211
in ethanol | 0.00815 | 0.00973 | 0.0115 | 0.0134 | 0.0155 | 0.0181 | 0.0211 | 0.0246 | 0.028
in isopropanol | 0.00498 | 0.00612 | 0.00727 | 0.00867 | 0.0103 | 0.0121 | 0.014 | 0.0163 | 0.0185
in methanol | 0.00781 | 0.00899 | 0.00999 | 0.0115 | 0.0129 | 0.0144 | 0.0163 | 0.0178 | 0.02
in water | 2.15e-05 | 2.83e-05 | 3.61e-05 | 4.64e-05 | 5.91e-05 | 7.67e-05 | 9.57e-05 | 0.00012 | 0.000148

Reference: BigSolDB 2.1
